≈ marks a conversion by molar mass, not a printed value. Counter-ions that a name gives are not always drawn. Like-named read-outs stand apart in the source and are kept apart here.
Columns and labels:
[1] = system: histamine stimulated parietal cell; experiment: Isolated parietal cell assay, inhibition of 14C-aminopyrine accumulation, histamine stimulated; format: cell-based, rabbit; conditions: Oryctolagus cuniculus, 20 min, read-out: Isolated Parietal Cells IC50 vs his
Method: (§1) The isolated parietal cell assay was conducted using the procedures of Batzri, S. et al., Biochemica et Biophysica Acta 508, 328 (1978) and Soll, A.H. Am. J. Physiol. 238, G366 (1980). Basically, parietal cells were isolated from the fundic mucosa of rabbit stomachs by a four-stage collagenase digestion process. The supernatant fractions from the last two stages of this process contain the individual parietal cells. This cell suspension was centrifuged and reconstituted in a modified Hank's buffer to contain 1-2×10^6 cells/ml. […] This accumulation was stimulated by histamine and was blocked by H2 antagonists. The cells were incubated with 0.4-0.5×10^6 cpm ^14 C-AP, with various concentrations of histamine as a stimulant, 1×10^-5 M isobutylmethylxanthine, and the test compound added in a 20 μl volume of buffer or DMSO. The flasks were incubated in a shaking water bath at 37° C. for 20 minutes. Two aliquots were then taken from each flask and cell pellets were collected by centrifugation. The pellets were solubilized with Protosol (New England Nuclear) and radioactivity determined by liquid scintillation spectrometry. Data are presented as the IC50 vs hist, the concentration of compound required to inhibit ^14 C-AP accumulation in the histamine stimulated parietal cell by 50%.

[2] = system: cAMP stimulated parietal cell; experiment: Isolated parietal cell assay, inhibition of 14C-aminopyrine accumulation, dibutyryl cAMP stimulated; format: cell-based, rabbit; conditions: Oryctolagus cuniculus, 20 min, read-out: Isolated Parietal Cells IC50 vs cAMP
Method: as §1
When dibutyryl cAMP was used to stimulate the cells instead of histamine, a similar inhibition of ^14 C-AP accumulation was measured and the data are presented as the IC50 vs cAMP, the concentration of compound required to inhibit ^14 C-AP accumulation in the cAMP stimulated parietal cell by 50%.

Candida albicans = experiment: In vitro antimicrobial activity, minimal inhibitory concentration (agar dilution), Candida albicans; format: cell-based, Candida albicans ATC 10231; conditions: read-out: Minimal inhibitory concentration, Candida albicans
Method: (§2) A 0.5 mg/ml stock solution of each Example compound was prepared in an appropriate solvent. From this stock, dilutions were prepared in solvent, and 0.2 ml aliquots of the stock and dilutions were added to tubes containing 19.8 ml of Mueller Hinton agar (46°-50° C.). The mixtures were poured into 100 by 15 mm petri dishes and allowed to solidify.
(§3) The test organisms (Candida albicans ATC 10231 and Trichophyton mentagrophytes ATC 22839) were diluted from frozen stock cultures. Inocula were diluted with sterile solution containing 0.1% peptone in water to contain approximately 2×10^5 […] (CFUs) per ml. Plate counts were performed on 1 mL of all inocula.
(§4) Each plate and unadulterated agar growth control was inoculated with the inocula prepared above using a Steer's Replicator method. Plates were then incubated at 32° C. Observations for growth were made at 48 hours.
(§5) The results of this test are reported below in Table 1 as compared to the known antifungal agents, miconazole nitrate and terconazole.

[3] = system: Trichophyton mentagrophytes; experiment: In vitro antimicrobial activity, minimal inhibitory concentration (agar dilution), Trichophyton mentagrophytes; format: cell-based, Trichophyton mentagrophytes ATC 22839; conditions: Mueller Hinton agar, 32° C., 48 hours, complete inhibition of growth
Method: as §2, §3, §4, §5

[4] = In vivo antisecretory activity, gastric secretion in pylorus ligated rats (acid output); parameters: species or system male Charles River Sprague Dawley derived rats; conditions: Rattus norvegicus, 4 h; 20 mpk, po; four hours after ligation; read-out: Pylorous Ligated Rats, effect on acid output compared to control
[5] = In vivo anticonvulsant activity, Antimetrazol (pentylenetetrazol-induced convulsions); parameters: species or system Male CD1 mice; key: +: Active; ±: Active, but weak; -: Inactive at this dose; conditions: p.o., 125 mg/kg pentylenetetrazol s.c. challenge; for Anticonvulsant profile, Antimetrazol (100): 100 mg/kg; for Anticonvulsant profile, Antimetrazol (10): 10 mg/kg
Method: Male CD1 mice, fasted at least 16 hours, were divided into groups of 10 and test compounds or vehicle were administered orally by gavage. The vehicle used was 0.5% aqueous methylcellulose solution containing 0.4% (v/v) of Tween 80. One hour later (or at time of suspected peak activity), the mice were challenged with 125 mg/kg of pentylenetetrazol, administered subcutaneously. Pentylenetetrazol was dissolved in 0.9% sodium chloride solution, and the dosage volume for administration of test compounds or the convulsant challenge was 10 ml/kg. Animals were housed individually for observation of convulsions for a period of 30 minutes.
Pentylenetetrazol-induced convulsions in vehicle-treated mice consist of mixed-clonic/tonic seizures. Tonic hindlimb extension and death are terminal consequences. Test compounds that block the hindlimb tonic extensor component of the convulsions in at least 50% of treated mice were considered active. ED50 values of active compounds may be calculated by the method of probits (Finney, 1971).

[6] = In vivo anticonvulsant activity, Antielectroshock; parameters: species or system Male CD1 mice; key: +: Active; ±: Active, but weak; -: Inactive at this dose; conditions: p.o.; for Anticonvulsant profile, Antielectroshock (100): 100 mg/kg; for Anticonvulsant profile, Antielectroshock (10): 10 mg/kg
General CNS Behavior = format: in vivo, Male CD1 mice; conditions: 100 mg/kg, p.o.
[7] = Mueller Hinton agar, 32° C., 48 hours, complete inhibition of growth
[8] = histamine stimulated, 14C-aminopyrine accumulation, 37° C., 20 minutes
[9] = dibutyryl cAMP stimulated, 14C-aminopyrine accumulation, 37° C., 20 minutes

Row | Structure (SMILES) | IC50 [1] [nM] | IC50 [2] [nM] | MIC (Candida albicans; [7]) [µg/mL] | MIC [3] [µg/mL] | IC50 [1, 8] [nM] | IC50 [2, 9] [nM] | change in vivo at 20 mg/kg [4] [%] | Anticonvulsant profile, Antimetrazol (100) [5] | Anticonvulsant profile, Antielectroshock (100) [6] | Anticonvulsant profile, Antimetrazol (10) [5] | Anticonvulsant profile, Antielectroshock (10) [6] | General CNS Behavior (General CNS Behavior) | MIC (Candida albicans; 48 h) [µg/mL]
1 | CN/C(=N/CCSCc1nc[nH]c1C)NC#N [Cimetidine, cimetidine, reference compound] | 820 | > 100000 |  |  |  |  |  |  |  |  |  |  | 
2 | C(=C\c1ccc(OCCCCn2ccnc2)cc1)/c1ccccc1 [Example 1, hydrochloride] |  |  | > 50 | 50 | 450 | 450 | -32 | - | - |  |  |  | 
3 | C(=C\c1ccc(OCCCn2ccnc2)cc1)/c1ccccc1.Cl [Example 2, (E)-4-(1H-Imidazol-1-yl)propoxystilbene hydrochloride] |  |  | > 50 | 10 | 160 | 270 | -4 | + | + | - | - |  | 
4 | CCCN(CCC)CCCOc1ccc(/C=C/c2cccc(OC)c2)cc1 [Example 3, (E)-3'-Methoxy-4-dipropylamino-propoxystilbene hydrochloride] |  |  | 50 | 50 | 100 | 110 | -92 | + | - | - |  |  | 
5 | Clc1cccc(/C=C/c2ccc(OCCCCn3ccnc3)cc2)c1 [Example 5, hydrochloride] |  |  | > 50 | > 50 | 180 | 100 | -12 |  |  |  |  |  | 
6 | Cl.c1ccc(-c2ccc(OCCCCn3ccnc3)cc2)cc1 [Example 6, 1-(1H-Imidazol-1-ylbutoxy)-4-phenylbenzene hydrochloride] |  |  | 1 | 1 | 170 | 160 | -24 | ± | ± | - | - | Wk CNS Depr | 
7 | CCCN(CCC)CCCCOc1ccc(-c2ccccc2)cc1.Cl [Example 7, 1-(Dipropylaminobutoxy)-4-phenylbenzene hydrochloride] |  |  | 50 | 1 | 120 | 260 | -45 | ± | ± | - | - |  | 
8 | Cl.c1ccc(-c2ccc(OCCCn3ccnc3)cc2)cc1 [Example 8, 1-(1H-Imidazol-1-ylpropoxy)-4-phenylbenzene hydrochloride] |  |  | 1 | 1 | 230 | 320 | -33 | ± | ± | - | - | Wk CNS Depr | 
9 | Cl.c1ccc(-c2ccc(OCCCCCn3ccnc3)cc2)cc1 [Example 9, 1-(1H-Imidazol-1-ylpentoxy)-4-phenylbenzene hydrochloride] |  |  | 50 | 10 | 90 | 110 | -54 |  |  |  | - |  | 
10 | c1ccc(-c2ccc(OCCCCCn3cncn3)cc2)cc1 [Example 10, hydrochloride] |  |  | > 50 | 10 | < 10000 | < 10000 |  |  |  |  |  |  | 
11 | Cl.O=C(c1ccc(Cl)cc1)c1ccc(OCCCn2ccnc2)cc1 [Example 11, 4'-Chloro-4-(1H-imidazol-1-ylpropoxy) benzophenone hydrochloride] |  |  | > 50 | 1 | 280 | 280 | -35 | - | - |  |  |  | 
12 | c1ccc(Cc2ccc(OCCCn3ccnc3)cc2)cc1 [Example 12, 1-[4-(1H-Imidazol-1-ylpropoxyphenyl)-1-phenylmethane hydrochloride] |  |  | 50 | 10 | 140 | 300 | -51 | + | + | - | - | Mod CNS Depr | 
13 | Clc1ccc(COC(Cn2ccnc2)c2ccc(Cl)cc2Cl)c(Cl)c1 (stereo not drawn) [Miconazole Nitrate, miconazole nitrate, reference compound] |  |  |  | 5 |  |  |  |  |  |  |  |  | 1
14 | CNC(=C[N+](=O)[O-])NCCSCc1ccc(CN(C)C)o1 [Ranitidine, ranitidine, reference compound] |  |  |  |  | 40 | > 100000 |  |  |  |  |  |  | 
15 | CC(C)N1CCN(c2ccc(OCC3COC(Cn4cncn4)(c4ccc(Cl)cc4Cl)O3)cc2)CC1 (stereo not drawn) [Terconazole, terconazole, reference compound] |  |  | 0.1 (≈ 0.188 µM) | 50 (≈ 93.9 µM) |  |  |  |  |  |  |  |  | 
